Source: US20150202212A1, “METHODS FOR IDENTIFYING AGENTS FOR TREATING SMOOTH MUSCLE DISORDERS AND COMPOSITIONS THEREOF” (University of Massachusetts Medical School, priority 2012, published 2015)
“Also recorded” adds a separate entry of the source. Read-outs that look alike come from different tables or passages of the source.

Experiments:
[1] = test system: mouse airways (trachea and bronchi rings); experiment: Mouse airway smooth muscle contraction bioassay (isometric tension); settings: for relaxation of smooth muscle from airways: mouse; for reversal (relaxation) of KCl-induced tension: 60 mM KCl, chloroquine, denatonium 1 mM
From the text: C57/BL6 mice at 7-12 weeks of age were sacrificed and the entire respiratory trees were rapidly removed and immersed in Krebs physiologic solution containing (in mM) 118.07 NaCl, 4.69 KCl, 2.52 CaCl2, 1.16 MgSO4, 1.01 NaH2PO4, 25 NaHCO3, and 11.10 glucose. Trachea and bronchi were isolated and cut into rings (4 mm in length). The rings were mounted on a wire myograph chamber (Danish Myo Technology, Aarhus, Denmark), and a PowerLab recording device (AD Instruments) was used to record isometric tension. The ring preparations with zero tension were immersed in 5 ml of Krebs physiologic solution, bubbled with 95% 02 and 5% CO2 at 37° C. The basal tones were set at the level of approximately 2 mN.

[2] = test system: isolated mouse airway smooth muscle cells; experiment: Measurement of global [Ca2+]i (fluo-3) in freshly isolated mouse airway smooth muscle cells; format: cell-based; settings: for effect on chloroquine-induced reversal of the KCl-induced increase in [Ca2+]i: PTX 1 μg/ml 6-8 hours, gallein 20 μM, Anti-βγ 1 μM, U73122, 2-ABP at concentrations of FIG. 5; for chloroquine-induced increase in global [Ca2+]i, % of control: resting cells, PTX 1 μg/ml 6-8 hr, gallein 20 μM 30 min, Anti-βγ 1 μM 1 hr, U73122 3 μM, 2-APB 50 μM; for effect on chloroquine's reduction of the Mch-induced [Ca2+]i increase: 10 μM FPL, single cell level
Protocol: (§1) The tracheas and bronchi were dissected free from the surface of the connective tissue. The tissue was incubated in the dissociation medium containing papain 30 unit/ml, 1 mM DTT, and 0.5 mg/ml BSA, at 35° C. for 30 min, and then transferred to a dissociation medium containing 3 unit/ml collagenase F and 0.5 mg/mL BSA, and incubated at 35° C. for another 15 min to produce isolated ASM cells. Finally, the tissue was agitated with a fire polished wide-bore glass pipette to release the cells.
Fluorescence images using fluo-3 as a calcium indicator were obtained using a custom-built wide-field digital imaging system. The camera was interfaced to a custom made inverted microscope, and the cells were imaged using either a 20× Nikon 1.3 NA for global [Ca^2+] measurement or a 60× Nikon 1.4 NA oil for Ca^2+ spark measurement. […] The images were acquired at the speed of either 1 Hz for global [Ca^2+] measurement or 50 Hz for Ca^2+ spark measurement. Subsequent image processing and analysis was performed off line using a custom-designed software package, running on a Linux/PC workstation. [Ca^2+]i was represented as ΔF/F0*100 with F calculated by integrating fluo-3 over entire cells for global [Ca^2+], or just the value at the brightest pixel (i.e., epicenter pixel) for Ca^2+ sparks.
All chemicals, except fluo-3 (Invitrogen Co, San Diego, Calif., USA), gallein (Tocris Bioscience, Bristol, United Kingdom), and Anti-βγ blocking peptide (AnaSpec, Fremont, Calif., USA), were purchased from Sigma-Aldrich Co. (St. Louis, Mo., USA). For single cell studies, agonists and antagonists were applied locally to cells via a picospritzer at a constant pressure, so that the duration of its action and concentration could be controlled easily.

Mouse ASM cells = experiment: Measurement of cell shortening in mouse ASM cells; format: cell-based; settings: Mch 100 μM; n=21
Protocol: as §1, with “the cells. Myocytes were placed into a recording chamber superfused with the bath solution for patch clamp experiments at room temperature. Cells loaded with Fluo-3 were imaged using a custom-built wide-field digital imaging system and their lengths were determined using custom software to manually trace down the center of the cell.” for “the cells.”

[3] = test system: pulmonary artery from mouse; experiment: Relaxation of smooth muscle from mouse pulmonary artery
[4] = test system: human intrapulmonary bronchi; experiment: Force measurement in human intrapulmonary airways; settings: for relaxation of smooth muscle from airways: human; for reversal (relaxation) of KCl-induced tension: KCl (60 mM), chloroquine, denatonium 1 mM
From the text: Trachea and bronchi were isolated and cut into rings (4 mm in length). The rings were mounted on a wire myograph chamber (Danish Myo Technology, Aarhus, Denmark), and a PowerLab recording device (AD Instruments) was used to record isometric tension. […] Human lung tissue was obtained (with informed consent) from patients undergoing surgery (lobectomy) for lung cancer at the Department of Surgery and the Department of Pathology at the Univ. of Massachusetts Memorial Med Ctr (Worcester, Mass.). The tumors were identified as nonsmall cell carcinoma (adenocarcinoma, squamous cell carcinoma). Intrapulmonary airways were dissected out and cleaned free of the connective tissues. These airways were either cut into the rings ([…]) for force measurements the same as for mouse airway tissues, or digested with the same enzymes, dissociation medium and isolation procedure as for single mouse ASM cells. The experimental protocols on human tissues were approved by the Committee for Protection of Human Subjects in Research at the University of Massachusetts Medical School (Protocol 13590 to R.Z).

[5] = test system: mouse internal anal sphincter; experiment: Spontaneous tone of mouse internal anal sphincter; settings: for relaxation of smooth muscle from internal anal sphincter: mouse
From the text: The spontaneous tone contributes about 70% of the basal tonus that maintains fecal continence in human and animals.

mouse urethra = experiment: Mouse urethral contraction induced by contractile agonists; settings: for relaxation of smooth muscle from urethra: mouse
From the text: […] were pretreated with bitter tastants, and then stimulated with contractile agonists. Contractile agonists alone were used as the control.

human pulmonary arteries = experiment: Relaxation of human pulmonary arteries pre-contracted by KCl; settings: for relaxation of smooth muscle from pulmonary artery: human; for relaxation of human pulmonary arteries: pre-contracted by KCl
From the text: Human specimen were provided by Univ. Mass. Memorial Medical Center.

[6] = test system: isolated smooth muscle cells from mouse internal anal sphincter; experiment: [Ca2+]i in isolated smooth muscle cells from mouse internal anal sphincter; format: cell-based; settings: CDCA 100 μM; chloroquine 1 mM; denatonium 1 mM
From the text: Fluorescence images using fluo-3 as a calcium indicator were obtained using a custom-built wide-field digital imaging system. The camera was interfaced to a custom made inverted microscope, and the cells were imaged using either a 20× Nikon 1.3 NA for global [Ca^2+] measurement or a 60× Nikon 1.4 NA oil for Ca^2+ spark measurement. The 488 nm line of an Argon Ion laser provided fluorescence excitation, with a shutter to control exposure duration, and emission of the Ca^2+ indicator was monitored at wavelengths >500 nm. The images were acquired at the speed of either 1 Hz for global [Ca^2+] measurement or 50 Hz for Ca^2+ spark measurement. Subsequent image processing and analysis was performed off line using a custom-designed software package, running on a Linux/PC workstation. [Ca^2+]i was represented as ΔF/F0*100 with F calculated by integrating fluo-3 over entire cells for global [Ca^2+], or just the value at the brightest pixel (i.e., epicenter pixel) for Ca^2+ sparks.

mouse airway strips = settings: all at 1 mM; [Ca2+]i clamped; α-toxin permeabilized
[7] = pretreatment, Chloro 1 mM, CDCA 100 μM

CC(=O)OC(C)C[N+](C)(C)C (stereo not shown) [Mch, methacholine]
contraction (tension) of mouse airways at rest ([1]; 1 mM chloro, 100 μM Mch): robust contraction | tension generated in Ca2+ free medium, % of that in the presence of extracellular Ca2+ ([1]; Ca2+ free medium): less than 20% | contraction (force) of mouse airways at rest ([1]; chloroquine 10 μM-1 mM, Mch 0.1-10 μM): induced contraction markedly | increase in fluo-3 fluorescence (ΔF/F0) ([2]; Mch 100 μM): 162±26% | cell shortening (Mouse ASM cells): 49±8%

COc1ccc2c(c1)CC[C@@H]1[C@@H]2CC[C@]2(C)[C@@H](NCCCCCCN3C(=O)C=CC3=O)CC[C@@H]12 [U73122]
effect on chloroquine-induced reversal of the KCl-induced increase in [Ca2+]i [2]: failed to alter | chloroquine-induced increase in global [Ca2+]i, % of control [2]: 18.0±5.5%

[Cl-].[K+] [KCl]
KCl-induced increase in ΔF/F0 ([2]; KCl 60 mM, without diltiazem, n=9): 122±19%

C[C@H](CCC(=O)O)[C@H]1CC[C@H]2[C@@H]3CC[C@@H]4C[C@H](O)CC[C@]4(C)[C@H]3C[C@H](O)[C@]12C [DCA, deoxycholic acid]
relaxation of smooth muscle from airways [1]: fully relax | relaxation of smooth muscle from pulmonary artery [3]: fully relax | relaxation of smooth muscle from airways [4]: fully relax | reversal (relaxation) of KCl-induced tension ([4]; human airways): fully relaxed | relaxation of smooth muscle from internal anal sphincter [5]: fully relax | relaxation of smooth muscle from urethra (mouse urethra): fully relax | relaxation of smooth muscle from pulmonary artery (human pulmonary arteries): fully relax | relaxation of human pulmonary arteries (human pulmonary arteries): markedly relaxed

C[C@H](CCC(=O)O)[C@H]1CC[C@H]2[C@@H]3[C@H](O)C[C@@H]4C[C@H](O)CC[C@]4(C)[C@H]3CC[C@]12C [CDCA, chenodeoxycholic acid]
effect on the increase in [Ca2+]i induced by 60 mM KCl [6]: reversibly inhibited | relaxation of smooth muscle from airways [1]: fully relax | relaxation of smooth muscle from pulmonary artery [3]: fully relax | relaxation of smooth muscle from airways [4]: fully relax | effect on spontaneous tone [5]: reversed totally | relaxation of smooth muscle from internal anal sphincter [5]: fully relax | relaxation of smooth muscle from urethra (mouse urethra): fully relax | effect on 10 μM methacholine-induced contraction (mouse urethra; pretreatment, CDCA 100 μM): inhibited | effect on 60 mM KCl-induced contraction (mouse urethra; [7]): blocked | effect on alpha1-agonist phenylephrine-induced contraction (mouse urethra; [7]): inhibited | relaxation of smooth muscle from pulmonary artery (human pulmonary arteries): fully relax

COc1ccc([C@@H]2Sc3ccccc3N(CCN(C)C)C(=O)[C@@H]2OC(C)=O)cc1 [diltiazem]
reversal of the KCl-induced contraction ([1]; KCl 60 mM, n=6): 93.1±4.8% | reversal of Mch-induced airway force generation ([1]; mouse airways): dose-dependently reversed | reversal (relaxation) of KCl-induced tension ([1]; mouse airways): relaxed | reversal of Mch-induced airway force generation ([4]; human airways, 10 μM Mch): dose-dependently reversed | reversal (relaxation) of KCl-induced tension ([4]; human airways): relaxed | KCl-induced increase in ΔF/F0 after diltiazem pretreatment ([2]; 10 μM diltiazem pretreatment, KCl 60 mM, n=9): 16.8±10% | effect on KCl (60 mM)-induced increase in [Ca2+]i ([2]; prior application of diltiazem 100 μM): blocked | reversal of the Mch-induced increase in [Ca2+] ([2]; single isolated mouse ASM cells, n=12): 90.2±2.9%

NCCOB(c1ccccc1)c1ccccc1 [2-APB, 2-Aminoethoxydiphenyl borate]
effect on chloroquine-induced reversal of the KCl-induced increase in [Ca2+]i [2]: failed to alter | chloroquine-induced increase in global [Ca2+]i, % of control [2]: −10.5±7.3%

pertussis toxin [PTX]
effect on chloroquine-induced reversal of the KCl-induced increase in [Ca2+]i [2]: prevented | chloroquine-induced increase in global [Ca2+]i, % of control [2]: 21.1±8.6%

COC(=O)c1c(C)[nH]c(C)c1C(=O)c1ccccc1Cc1ccccc1 [FPL, FPL 64176]
effect on chloroquine-induced relaxation in ASM pre-contracted by KCl ([1]; KCl 60 mM): dose-dependently reversed; also recorded: dose-dependently inhibited | effect on chloroquine-induced relaxation of Mch precontracted airways ([1]; tissue level): prevent chloroquine from relaxing; also recorded: dose-dependently reversed | effect on chloroquine's reduction of [Ca2+]i in cells stimulated by KCl [2]: prevented | effect on chloroquine's reduction of the Mch-induced [Ca2+]i increase [2]: prevent chloroquine from reducing | effect on chloroquine's reduction of the Mch-induced [Ca2+]i increase ([2]; listed as FPL 64176): prevented chloro from reversing | effect on chloroquine's reduction of [Ca2+]i in cells stimulated by KCl ([2]; listed as FPL 64176): inhibited

MPS-phosducin-like protein C terminus [Anti-βγ]
effect on chloroquine-induced reversal of the KCl-induced increase in [Ca2+]i [2]: prevented | chloroquine-induced increase in global [Ca2+]i, % of control [2]: 18.4±4.8%

O=C1OC2(c3ccccc31)c1ccc(O)c(O)c1Oc1c2ccc(O)c1O [gallein]
effect on chloroquine-induced reversal of the KCl-induced increase in [Ca2+]i [2]: prevented | chloroquine-induced increase in global [Ca2+]i, % of control [2]: 19.9±8.5%

CC[N+](CC)(CC(=O)Nc1c(C)cccc1C)Cc1ccccc1 [denatonium]
effect on the increase in [Ca2+]i induced by 60 mM KCl [6]: did not affect | reversal (relaxation) of KCl-induced tension ([1]; mouse airways): fully reversed; also recorded: relaxed | reversal (relaxation) of KCl-induced tension ([4]; human airways): fully reversed | relaxation of ASM at fixed [Ca2+]i (mouse airway strips): failed to relax | effect on spontaneous tone [5]: enhanced | relaxation of human pulmonary arteries (human pulmonary arteries): failed to exert any effect
